“And” between values parts separate entries of the source, which are not always exact repeats. Equal values may be shown once. “Also recorded” adds a separate entry of the source.
Legend:
[1] = tested on: acetic acid induced writhing; experiment: Acetic acid induced writhing test; format: in vivo; conditions: mice; for number of writhing: mean ± SEM, control 61.22 ± 3.90
Procedure: The animals were divided into various groups I-XVI consisting of 8 experimental animals for control, sample compounds (WE-1 to WE-7) and standard. Group I: Control, Group II-XV: WE-1 to WE-7 (sample compounds) at dose of 10 mg/kg and 20 mg/kg and Group XVI: Standard. The control (Group I) was given normal saline. Group II-XV received 10 mg/kg and 20 mg/kg of test sample (WE-1 to WE-7). […] The writhing test, following a previously established method, was conducted to assess the analgesic potential of the aurone derivatives. The mice were orally administered samples compounds (WE-1 to WE-7)and standard (Diclofenac sodium 10 mg/kg) 1 h before intraperitoneal administration 10 ml/kg of 1 % acetic acid. Five minutes after the acetic acid administration, the numbers of writhing episodes were counted for 10 min, and the percentage of inhibition was subsequently calculated.

[2] = tested on: formalin induced paw licking; experiment: Formalin induced paw licking test; format: in vivo; conditions: 20 mg/kg oral, mice
Procedure: The animals were divided into various groups I-XVI consisting of 8 experimental animals for control, sample compounds (WE-1 to WE-7) and standard. Group I: Control, Group II-XV: WE-1 to WE-7 (sample compounds) at dose of 10 mg/kg and 20 mg/kg and Group XVI: Standard. The control (Group I) was given normal saline. Group II-XV received 10 mg/kg and 20 mg/kg of test sample (WE-1 to WE-7). […] The acute peripheral and centrally mediated analgesic activity of aurone derivatives was evaluated using the formalin-induced pain method, as described. Samples compounds (WE-1 to WE-7) and a standard (Indomethacin 10 mg) were orally administered 30 min prior to 20 μl of 1 % formalin injection (prepared in 0.9 % saline) in right hind paw of the mice and immediately placed in a clear box to observe the animal's reaction. Paw licking or biting within 0–5 min indicated Phase 1, while animal reactions observed between 15 and 30 min indicated Phase 2. The number of paw licking or biting events was compared to the control group, and the percentage of inhibition was calculated.

[3] = tested on: opioid receptors (tail flicking latency); experiment: Assessment of opioid mechanism via tail immersion test with Naloxone; format: in vivo; conditions: mice; for Latency response 30 min: control 3.14 ± 0.31; for Latency response 60 min: control 3.17 ± 0.41; for Latency response 120 min: control 3.20 ± 0.29; for Latency response 90 min: control 3.31 ± 0.44
Procedure: The cut-off time was set at 25 s, and the time taken for the mice to flick their tails out of the water was recorded at 30, 60, 90, and 120-min intervals. An increase in the time of tail immersion was compared to the control group to determine the analgesic effect of the tested drugs. The percentage of inhibition was calculated at the time interval showing the highest effect.
To verify the involvement of the opioid mechanism, following the approach outlined in the published study. […] These derivatives were assessed for their potential opioid activity within the control, sample compounds and standard groups using the tail immersion test.

LOX enzyme = target: T1, LOX enzyme (Glycine max, UniProt P08170); experiment: LOX enzyme kinetic assay (Lineweaver-Burk); format: biochemical; conditions: Lineweaver-Burk plot
T1 construct: purchased Cayman Chemicals
T1 sequence (P08170 1-839): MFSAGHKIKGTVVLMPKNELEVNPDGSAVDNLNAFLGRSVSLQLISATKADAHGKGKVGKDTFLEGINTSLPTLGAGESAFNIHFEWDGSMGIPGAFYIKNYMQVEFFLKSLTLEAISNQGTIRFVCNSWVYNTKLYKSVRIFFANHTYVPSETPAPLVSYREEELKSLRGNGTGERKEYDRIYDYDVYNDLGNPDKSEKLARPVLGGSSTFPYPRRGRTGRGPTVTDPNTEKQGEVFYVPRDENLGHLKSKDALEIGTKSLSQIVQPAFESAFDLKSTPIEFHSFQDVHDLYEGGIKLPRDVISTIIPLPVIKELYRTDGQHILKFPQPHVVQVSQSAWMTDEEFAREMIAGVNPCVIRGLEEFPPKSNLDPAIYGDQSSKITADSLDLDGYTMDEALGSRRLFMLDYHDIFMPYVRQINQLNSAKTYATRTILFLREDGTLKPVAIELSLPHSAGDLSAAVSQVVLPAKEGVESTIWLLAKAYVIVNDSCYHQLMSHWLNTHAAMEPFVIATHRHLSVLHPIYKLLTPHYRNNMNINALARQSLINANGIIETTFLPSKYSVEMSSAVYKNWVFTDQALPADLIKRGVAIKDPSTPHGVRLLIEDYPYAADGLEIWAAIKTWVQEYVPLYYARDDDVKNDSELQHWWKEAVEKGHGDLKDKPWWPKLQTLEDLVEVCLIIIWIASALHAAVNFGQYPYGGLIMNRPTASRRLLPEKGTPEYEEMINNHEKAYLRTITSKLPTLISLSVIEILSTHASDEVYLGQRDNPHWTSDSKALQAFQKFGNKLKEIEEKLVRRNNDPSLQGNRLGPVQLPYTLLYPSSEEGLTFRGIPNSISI
Procedure: The type of enzyme inhibition by compound (WE-4) was determined using the continuous spectrophotometric rate determination method. Various concentrations of the substrate (AA) were prepared in a Tween-20 solution within a 200 mM borate buffer at pH 9.0. A fixed concentration of LOX enzyme (10,000 units/ml) was prepared in a separate 200 mM borate buffer at pH 9.0. The enzyme kinetics were analyzed by employing the Lineweaver and Burk method while examining the substrate at different concentrations in the presence or absence of compound (WE-4).

COc1ccc(C=C2Oc3ccccc3C2=O)cc1OC [WE-4, 2-(3,4-dimethoxybenzylidene)benzofuran-3(2H)-one]
percent analgesic effect (inhibition of writhing) ([1]; 10 mg/kg oral): 71.30% | number of writhing ([1]; 10 mg/kg oral): 17.57 ± 1.94 | percent analgesic effect (inhibition of writhing) ([1]; 20 mg/kg oral): 77.60% | number of writhing ([1]; 20 mg/kg oral): 13.71 ± 1.77 | percentage inhibition of paw licking, Phase I ([2]; initial phase): 49.97% | percentage inhibition of paw licking, Phase II ([2]; late phase): 70.93% and 70.96% | number of formalin-induced paw licking, Phase II ([2]; late phase, control 55.81 ± 3.29): 16.22 ± 1.86 | Latency response 30 min ([3]; 10 mg/kg + Naloxone 2 mg/kg): 3.60 ± 0.61 | Latency response 60 min ([3]; 10 mg/kg + Naloxone 2 mg/kg): 4.49 ± 0.43 | Latency response 120 min ([3]; 10 mg/kg + Naloxone 2 mg/kg): 3.80 ± 0.49 | Latency response 90 min ([3]; 10 mg/kg + Naloxone 2 mg/kg): 5.30 ± 0.48 | Latency response 30 min ([3]; 20 mg/kg + Naloxone 2 mg/kg): 3.41 ± 0.48 | Latency response 60 min ([3]; 20 mg/kg + Naloxone 2 mg/kg): 4.67 ± 0.60 | Latency response 120 min ([3]; 20 mg/kg + Naloxone 2 mg/kg): 4.03 ± 0.57 | Latency response 90 min ([3]; 20 mg/kg + Naloxone 2 mg/kg): 4.80 ± 0.61 | type of enzyme inhibition (LOX enzyme): non-competitive inhibitor; also recorded: non-competitive inhibition
